From patent publication US20190240236A1, “ORAL TESTOSTERONE UNDECANOATE THERAPY” (Lipocine Inc., priority 2016, published 2019)

Experiment: Clinic Study of Testosterone Therapy for hypogonadal males: serum T Cavg and Cmax after oral TU fixed dose regimens
Assay type: in vivo, human
Conditions: for Cavg > 300 ng/dL ≥75% patients / Cavg > 300 ng/dL ≥80% patients: with food (at least 10 g fat)
Experimental: Fixed Dose Dosing Regimen Examples Based on Study Described Below for Estimated or Actual Cavg (Administered with Food with at Least 10 g of Fat)
The dosage form from Example B of Composition 4 with dosing regimen (Regimen #9-16) of dosing category BID-equal dose with daily dose range 150-600 mg were used for a Clinic Study of Testosterone Therapy for hypogonadal males.
The clinical study was a randomized double-blind, placebo-controlled dose escalating study of the safety, efficacy, tolerability, and pharmacokinetics of testosterone therapy in hypogonadal males. This clinic study was a single and multiple, ascending-dose study that was designed to determine the optimal starting, titration (if appropriate), or single fixed dose for safety and efficacy targeted by the US FDA. The study also verified the time for testosterone levels to reach steady state and identified a suitable fixed dose dosing regimen that satisfies an unmet need for safety and efficacy for oral TT.
This study was carried out with conditions of a single-center, randomized, double-blind, placebo-controlled, ascending multiple-dose, and serial-group in adult hypogonadal male subjects. The objectives of this study were: • a) To assess the safety, efficacy, and tolerability of escalating single and multiple oral doses of TU dosage forms in hypogonadal males • b) To determine the pharmacokinetics (PK) of testosterone (T), DHT, TU, DHTU, and estradiol (E2) after single and multiple oral doses of TU dosage forms in hypogonadal males • C) To identify a fixed dose dosing regimen satisfying US FDA targets, without needing to titrate, for restoring serum T levels in hypogonadal males to the normal T range.
The dosing regimen for this clinical study ranged from 150 mg daily dose (75 mg BID dose) to 600 mg daily dose (300 mg BID dose). Observed pharmacokinetic parameters (T, DHT, TU, DHTU, and E2) after single and multiple oral doses of TU dosage forms in the patients were recorded in connection with each daily dose listed in the report.
The overall analyzed results of this clinical study were plotted according to % of patients for safety (Cmax<1,500 ng/dL) and efficacy (Cavg>300 ng/dL) with a variety of dosing regimens. Note that only doses that were multiples of 75 mg were tested in the clinical study, the results predicted for the other doses are estimated from these values.

[1] = Daily dose 410 mg, each BID dose 205 mg
[2] = Daily dose 420 mg, each BID dose 210 mg
[3] = Daily dose 430 mg, each BID dose 215 mg
[4] = Daily dose 438 mg, each BID dose 219 mg
[5] = Daily dose 450 mg, each BID dose 225 mg
[6] = Daily dose 460 mg, each BID dose 230 mg
[7] = Daily dose 474 mg, each BID dose 237 mg
[8] = Daily dose 480 mg, each BID dose 240 mg
[9] = Daily dose 490 mg, each BID dose 245 mg
[10] = Daily dose 500 mg, each BID dose 250 mg
[11] = Daily dose 518 mg, each BID dose 259 mg
[12] = Regimen 1, TID-equal dose, TU 75/75/75 mg
[13] = Regimen 2, TID-equal dose, TU 112/112/112 mg
[14] = Regimen 3, TID-equal dose, TU 125/125/125 mg
[15] = Regimen 4, TID-equal dose, TU 150/150/150 mg
[16] = Regimen 5, TID-equal dose, TU 188/188/188 mg
[17] = Regimen 6, TID-equal dose, TU 225/225/225 mg
[18] = Regimen 7, TID-equal dose, TU 237/237/237 mg
[19] = Regimen 8, TID-equal dose, TU 250/250/250 mg
[20] = Regimen 9, BID-equal dose (AM/PM), TU 75/75 mg
[21] = Regimen 10, BID-equal dose (AM/PM), TU 150/150 mg
[22] = Regimen 11, BID-equal dose (AM/PM), TU 215/215 mg
[23] = Regimen 12, BID-equal dose (AM/PM), TU 225/225 mg
[24] = Regimen 13, BID-equal dose (AM/PM), TU 237/237 mg
[25] = Regimen 14, BID-equal dose (AM/PM), TU 250/250 mg
[26] = Regimen 15, BID-equal dose (AM/PM), TU 265/265 mg
[27] = Regimen 16, BID-equal dose (AM/PM), TU 300/300 mg
[28] = Regimen 17, BID-different dose (AM/PM), TU 75/225 mg
[29] = Regimen 18, BID-different dose (AM/PM), TU 75/300 mg
[30] = Regimen 19, BID-different dose (AM/PM), TU 150/225 mg
[31] = Regimen 20, BID-different dose (AM/PM), TU 225/150 mg
[32] = Regimen 21, BID-different dose (AM/PM), TU 225/300 mg
[33] = Regimen 22, BID-different dose (AM/PM), TU 300/75 mg
[34] = Regimen 23, BID-different dose (AM/PM), TU 300/150 mg
[35] = Regimen 24, BID-different dose (AM/PM), TU 300/225 mg

## CCCCCCCCCCC(=O)O[C@H]1CC[C@H]2[C@@H]3CCC4=CC(=O)CC[C@]4(C)[C@H]3CC[C@]12C [TU, testosterone undecanoate]
[1]
  % with Cavg/day > 300 ng/dL: 71.5%
  % with Cmax/dose < 1,500 ng/dL: 93.7%
[2]
  % with Cavg/day > 300 ng/dL: 74.9%
  % with Cmax/dose < 1,500 ng/dL: 92.8%
[3]
  % with Cavg/day > 300 ng/dL: 77.6%
  % with Cmax/dose < 1,500 ng/dL: 92.1%
[4]
  % with Cavg/day > 300 ng/dL: 80.0%
  % with Cmax/dose < 1,500 ng/dL: 91.2%
[5]
  % with Cavg/day > 300 ng/dL: 83.5%
  % with Cmax/dose < 1,500 ng/dL: 89.9%
[6]
  % with Cavg/day > 300 ng/dL: 85.6%
  % with Cmax/dose < 1,500 ng/dL: 88.9%
[7]
  % with Cavg/day > 300 ng/dL: 88.9%
  % with Cmax/dose < 1,500 ng/dL: 86.8%
[8]
  % with Cavg/day > 300 ng/dL: 90.0%
  % with Cmax/dose < 1,500 ng/dL: 86.1%
[9]
  % with Cavg/day > 300 ng/dL: 91.7%
  % with Cmax/dose < 1,500 ng/dL: 84.6%
[10]
  % with Cavg/day > 300 ng/dL: 93.0%
  % with Cmax/dose < 1,500 ng/dL: 83.2%
[11]
  % with Cavg/day > 300 ng/dL: 95.2%
  % with Cmax/dose < 1,500 ng/dL: 80.0%
[12]
  Cavg > 300 ng/dL ≥75% patients: No
  Cavg > 300 ng/dL ≥80% patients: No
[13]
  Cavg > 300 ng/dL ≥75% patients: No
  Cavg > 300 ng/dL ≥80% patients: No
[14]
  Cavg > 300 ng/dL ≥75% patients: No
  Cavg > 300 ng/dL ≥80% patients: No
[15]
  Cavg > 300 ng/dL ≥75% patients: Yes
  Cavg > 300 ng/dL ≥80% patients: Yes
[16]
  Cavg > 300 ng/dL ≥75% patients: Yes
  Cavg > 300 ng/dL ≥80% patients: Yes
[17]
  Cavg > 300 ng/dL ≥75% patients: Yes
  Cavg > 300 ng/dL ≥80% patients: Yes
[18]
  Cavg > 300 ng/dL ≥75% patients: Yes
  Cavg > 300 ng/dL ≥80% patients: Yes
[19]
  Cavg > 300 ng/dL ≥75% patients: Yes
  Cavg > 300 ng/dL ≥80% patients: Yes
[20]
  Cavg > 300 ng/dL ≥75% patients: No
  Cavg > 300 ng/dL ≥80% patients: No
[21]
  Cavg > 300 ng/dL ≥75% patients: No
  Cavg > 300 ng/dL ≥80% patients: No
[22]
  Cavg > 300 ng/dL ≥75% patients: Yes
  Cavg > 300 ng/dL ≥80% patients: No
[23]
  Cavg > 300 ng/dL ≥75% patients: Yes
  Cavg > 300 ng/dL ≥80% patients: Yes
[24]
  Cavg > 300 ng/dL ≥75% patients: Yes
  Cavg > 300 ng/dL ≥80% patients: Yes
[25]
  Cavg > 300 ng/dL ≥75% patients: Yes
  Cavg > 300 ng/dL ≥80% patients: Yes
[26]
  Cavg > 300 ng/dL ≥75% patients: Yes
  Cavg > 300 ng/dL ≥80% patients: Yes
[27]
  Cavg > 300 ng/dL ≥75% patients: Yes
  Cavg > 300 ng/dL ≥80% patients: Yes
[28]
  Cavg > 300 ng/dL ≥75% patients: No
  Cavg > 300 ng/dL ≥80% patients: No
[29]
  Cavg > 300 ng/dL ≥75% patients: No
  Cavg > 300 ng/dL ≥80% patients: No
[30]
  Cavg > 300 ng/dL ≥75% patients: No
  Cavg > 300 ng/dL ≥80% patients: No
[31]
  Cavg > 300 ng/dL ≥75% patients: Yes
  Cavg > 300 ng/dL ≥80% patients: No
[32]
  Cavg > 300 ng/dL ≥75% patients: Yes
  Cavg > 300 ng/dL ≥80% patients: Yes
[33]
  Cavg > 300 ng/dL ≥75% patients: No
  Cavg > 300 ng/dL ≥80% patients: No
[34]
  Cavg > 300 ng/dL ≥75% patients: Yes
  Cavg > 300 ng/dL ≥80% patients: Yes
[35]
  Cavg > 300 ng/dL ≥75% patients: Yes
  Cavg > 300 ng/dL ≥80% patients: Yes
Fixed dose regimen, 430 mg TU daily dose (215 mg BID-equal dose) to 480 mg TU daily dose (240 mg BID-equal dose), no titration
  US FDA T level targets for safety and efficacy: can satisfy US FDA T level targets for safety and efficacy without titration
